Values joined by “and” are separate entries in the source; they are usually repeats but may differ in a detail not shown here. Identical values can stand only once. Inconclusive results and toxic doses are left out.
Test system: L1210 leukemia ip in BDF1 mice, survival T/C
Assay: NCI In Vivo Anticancer Drug Screen. Data for tumor model L1210 Leukemia (intraperitoneal) in B6D2F1 (BDF1) mice
Details: endpoint: mean survival time, higher = longer survival
How it was run: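 Each compound was tested against a transplantable tumor grown in mice. The endpoint was survival, with treated animals benchmarked against vehicle controls as a simple ratio.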

[1] = dose: 100.0 mg/kg/injection, schedule: Q01DX009 (ip), vehicle: saline with Tween-80
[2] = dose: 100.0 mg/kg/injection, schedule: Q04DX003 (ip), vehicle: saline with Tween-80
[3] = dose: 200.0 mg/kg/injection, schedule: Q01DX009 (ip), vehicle: saline with Tween-80
[4] = dose: 200.0 mg/kg/injection, schedule: Q04DX003 (ip), vehicle: saline with Tween-80
[5] = dose: 400.0 mg/kg/injection, schedule: Q01DX009 (ip), vehicle: saline with Tween-80
[6] = dose: 400.0 mg/kg/injection, schedule: Q04DX002 (ip), vehicle: saline with Tween-80
[7] = dose: 400.0 mg/kg/injection, schedule: Q04DX003 (ip), vehicle: saline with Tween-80
[8] = dose: 100.0 mg/kg/injection, schedule: Q01DX009 (ip), vehicle: saline
[9] = dose: 100.0 mg/kg/injection, schedule: Q04DX003 (ip), vehicle: saline
[10] = dose: 200.0 mg/kg/injection, schedule: Q01DX009 (ip), vehicle: saline
[11] = dose: 200.0 mg/kg/injection, schedule: Q04DX003 (ip), vehicle: saline
[12] = dose: 400.0 mg/kg/injection, schedule: Q01DX009 (ip), vehicle: saline
[13] = dose: 400.0 mg/kg/injection, schedule: Q04DX003 (ip), vehicle: saline
[14] = dose: 100.0 mg/kg/injection, schedule: Q01DX009 (ip), vehicle: Klucel (hydroxypropylcellulose) (HPC)
[15] = dose: 100.0 mg/kg/injection, schedule: Q04DX003 (ip), vehicle: Klucel (hydroxypropylcellulose) (HPC)
[16] = dose: 200.0 mg/kg/injection, schedule: Q04DX003 (ip), vehicle: Klucel (hydroxypropylcellulose) (HPC)
[17] = dose: 400.0 mg/kg/injection, schedule: Q04DX003 (ip), vehicle: Klucel (hydroxypropylcellulose) (HPC)

CCCC(C)c1ccc(C(C)=O)cc1 (stereo not given)
T/C (dose: 25.6 mg/kg/injection, schedule: Q04DX002 (ip), vehicle: saline with Tween-80): 100 % of control
T/C (dose: 64.0 mg/kg/injection, schedule: Q04DX002 (ip), vehicle: saline with Tween-80): 92 % of control
T/C [1]: 89 % of control
T/C [2]: 91 % of control
T/C (dose: 160.0 mg/kg/injection, schedule: Q04DX002 (ip), vehicle: saline with Tween-80): 88 % of control
T/C [3]: 89 % of control
T/C [4]: 96 % of control
T/C [5]: 90 % of control
T/C [6]: 92 % of control
T/C [7]: 88 % of control

c1ccc(C2=NN(c3ccccc3)CC2)cc1
T/C (dose: 100.0 mg/kg/injection, schedule: Q04DX002 (ip), vehicle: Klucel (hydroxypropylcellulose) (HPC)): 106 % of control
T/C (dose: 200.0 mg/kg/injection, schedule: Q04DX002 (ip), vehicle: Klucel (hydroxypropylcellulose) (HPC)): 98 % of control
T/C (dose: 400.0 mg/kg/injection, schedule: Q04DX002 (ip), vehicle: Klucel (hydroxypropylcellulose) (HPC)): 106 % of control

CC1(C)CC(=O)NN1C(=O)c1ccccc1
T/C [2]: 108 % of control
T/C [4]: 103 % of control
T/C [7]: 102 % of control

O=C(CBr)OCCCS(=O)(=O)O
T/C [8]: 96 % of control
T/C [9]: 105 % of control
T/C [10]: 113 % of control
T/C [11]: 104 % of control
T/C [12]: 102 % of control
T/C [13]: 93 % of control

NNC(=O)OCCO
T/C (dose: 25.0 mg/kg/injection, schedule: Q01DX009 (ip), vehicle: saline): 103 % of control
T/C (dose: 50.0 mg/kg/injection, schedule: Q01DX009 (ip), vehicle: saline): 104 % of control

CCCCCCCCCN1CCCC(OC(=O)N(C)C)C1 (stereo not given)
T/C (dose: 25.0 mg/kg/injection, schedule: Q04DX002 (ip), vehicle: saline): 103 % of control
T/C (dose: 50.0 mg/kg/injection, schedule: Q04DX002 (ip), vehicle: saline): 103 % of control
T/C (dose: 100.0 mg/kg/injection, schedule: Q04DX002 (ip), vehicle: saline): 100 % of control

CC1=C(/C=C/C(C)=C/C=C/C(C)=C/CO)C(C)(C)CCC1
T/C (dose: 50.0 mg/kg/injection, schedule: Q01DX009 (ip), vehicle: steriod suspending solution): 90 % of control
T/C (dose: 100.0 mg/kg/injection, schedule: Q01DX001 (ip), vehicle: other): 100 % of control
T/C (dose: 100.0 mg/kg/injection, schedule: Q01DX009 (ip), vehicle: steriod suspending solution): 95 % of control
T/C (dose: 150.0 mg/kg/injection, schedule: Q01DX001 (ip), vehicle: other): 98 % of control
T/C (dose: 200.0 mg/kg/injection, schedule: Q01DX001 (ip), vehicle: other): 95 % of control and 102 % of control
T/C (dose: 200.0 mg/kg/injection, schedule: Q01DX001 (sc), vehicle: steriod suspending solution): 101 % of control
T/C (dose: 400.0 mg/kg/injection, schedule: Q01DX001 (sc), vehicle: steriod suspending solution): 98 % of control

Cc1ccccc1C1(c2ccccc2C)OC(=O)c2ccccc21
T/C [1]: 93 % of control
T/C [3]: 89 % of control
T/C [5]: 90 % of control

CCOC(=O)/C(C)=N\Nc1ccc(Cl)cc1
T/C [14]: 106 % of control
T/C [15]: 102 % of control
T/C (dose: 200.0 mg/kg/injection, schedule: Q01DX009 (ip), vehicle: Klucel (hydroxypropylcellulose) (HPC)): 98 % of control
T/C [16]: 98 % of control
T/C (dose: 400.0 mg/kg/injection, schedule: Q01DX009 (ip), vehicle: Klucel (hydroxypropylcellulose) (HPC)): 98 % of control
T/C [17]: 99 % of control

CCOC(=O)CCN1CC(C)OC(C)C1 (stereo not given)
T/C [8]: 97 % of control
T/C [9]: 93 % of control
T/C [10]: 97 % of control
T/C [11]: 102 % of control
T/C [12]: 103 % of control
T/C [13]: 111 % of control

Cc1cccc(C)c1NC(=O)Oc1cccc2ccccc12
T/C [8]: 97 % of control
T/C [9]: 93 % of control
T/C [10]: 95 % of control
T/C [11]: 98 % of control
T/C [12]: 103 % of control
T/C [13]: 100 % of control

Oc1ccc(Cl)cc1C=Nc1ccc2c(c1)OCO2
T/C (dose: 100.0 mg/kg/injection, schedule: Q04DX002 (ip), vehicle: saline with Tween-80): 91 % of control
T/C (dose: 200.0 mg/kg/injection, schedule: Q04DX002 (ip), vehicle: saline with Tween-80): 88 % of control
T/C [6]: 91 % of control

NC(=O)OCC(N)C(=O)O (stereo not given)
T/C (dose: 75.0 mg/kg/injection, schedule: Q01DX001 (ip), vehicle: saline): 96 % of control
T/C [1]: 89 % of control
T/C (dose: 150.0 mg/kg/injection, schedule: Q01DX001 (ip), vehicle: saline): 94 % of control
T/C [3]: 87 % of control
T/C (dose: 300.0 mg/kg/injection, schedule: Q01DX001 (ip), vehicle: saline): 100 % of control
T/C [5]: 90 % of control

O=C1C=C(Nc2ccccc2)C(=O)C=C1Nc1ccccc1
T/C [2]: 86 % of control
T/C [4]: 86 % of control
T/C [7]: 86 % of control

CC(=O)NN(c1ccc([N+](=O)[O-])cc1)c1ccc([N+](=O)[O-])cc1
T/C (dose: 50.0 mg/kg/injection, schedule: Q01DX009 (ip), vehicle: Klucel (hydroxypropylcellulose) (HPC)): 97 % of control
T/C [14]: 90 % of control
T/C [15]: 93 % of control
T/C [16]: 95 % of control

CCC(=O)OC1CC2(C)C(=CC1=O)CCC1C2CCC2(C)C(OC(=O)CC)CCC12 (stereo not given)
T/C [8]: 97 % of control
T/C [10]: 96 % of control
T/C [12]: 96 % of control

Nc1nc(SCc2ccccc2)c2ncn(C3CC(O)C(CO)O3)c2n1 (stereo not given)
T/C (dose: 7.0 mg/kg/injection, schedule: Q01DX015 (ip), vehicle: saline): 118 % of control
T/C (dose: 12.0 mg/kg/injection, schedule: Q01DX015 (ip), vehicle: saline): 168 % of control
T/C (dose: 20.0 mg/kg/injection, schedule: Q01DX015 (ip), vehicle: saline): 172 % of control
T/C (dose: 34.0 mg/kg/injection, schedule: Q01DX015 (ip), vehicle: saline): 153 % of control
T/C (dose: 100.0 mg/kg/injection, schedule: Q01DX005 (ip), vehicle: saline): 97 % of control
T/C (dose: 200.0 mg/kg/injection, schedule: Q01DX005 (ip), vehicle: saline): 113 % of control
T/C (dose: 400.0 mg/kg/injection, schedule: Q01DX001 (ip), vehicle: saline): 157 % of control

Cc1cc(=O)[nH]c2nc3ccccc3n12
T/C (dose: 100.0 mg/kg/injection, schedule: Q01DX001 (ip), vehicle: Klucel (hydroxypropylcellulose) (HPC)): 108 % of control
T/C [15]: 96 % of control
T/C (dose: 200.0 mg/kg/injection, schedule: Q01DX001 (ip), vehicle: Klucel (hydroxypropylcellulose) (HPC)): 95 % of control
T/C [16]: 96 % of control
T/C (dose: 400.0 mg/kg/injection, schedule: Q01DX001 (ip), vehicle: Klucel (hydroxypropylcellulose) (HPC)): 111 % of control
T/C [17]: 104 % of control

CSc1nnc2sc(C)nn12
T/C (dose: 100.0 mg/kg/injection, schedule: Q01DX001 (ip), vehicle: carboxymethylcellulose (CMC)): 104 % of control
T/C (dose: 200.0 mg/kg/injection, schedule: Q01DX001 (ip), vehicle: carboxymethylcellulose (CMC)): 104 % of control
T/C (dose: 400.0 mg/kg/injection, schedule: Q01DX001 (ip), vehicle: carboxymethylcellulose (CMC)): 102 % of control
